In patent EP0056560A1, “Active antibiotic compositions, process for their manufacture and process for the antibiotic activity of antibiotics” (CIBA-GEIGY AG, priority 1981, dated 1982):

Assays:
Assay in all cases: Mouse protection test: i.p. infection, s.c. treatment with the antibiotic alone or combined with muramyl peptide, survivors counted
Assay type in all cases: in vivo, weisse Laboratoriums-Mäuse
Salmonella typhimurium = settings: mice infected i.p. with 40 x 10^4 cfu Salmonella typhimurium; Cefroxadin s.c. immediately and 3 h after infection, combined with 10 mg/kg N-Acetyl-muramyl-L-alanyl-D-isoglutaminyl-L-alanyl-2-(1',2'-dipalmitoyl-sn-glycero-3'-hydroxyphosphoryloxy)-äthylamid, compared with Cefroxadin alone; survivors counted after 4 or 10 days
Source text: (§1) Die hohe antibiotische Wirkung der neuen Präparate und des neuen Verfahrens kann durch "in vivo"-Versuche nachgewiesen werden, die an verschiedenen Tierarten, insbesondere an Säugetieren, wie Mäusen, durchgeführt werden. Dazu infiziert man sie mit einer letalen oder subletalen Dosis eines pathogenen Mikroorganismus und gibt dann das genannte neue Präparat bzw. die einzelnen Dosen an Muramylpeptid und Antibiotikum. Die Wirkung wird als ED50 bestimmt, das ist diejenige Dosis, bei der 50% der Tiere überleben.
(§2) Beispiel 4: Man infiziert weisse Laboratoriums-Mäuse auf i.p. Wege mit 2 x 10^4 cfu (colony forming units) Klebsiella pneumoniae, 0,1 x 10^4 cfu Pasteurella multocida oder 40 x 10^4 cfu Salmonella typhimurium in Salzlösung, so dass 90-100Z der nicht behandelten Kontrolltiere innerhalb von 48 Stunden getötet werden. Unmittelbar, sowie 3 Stunden nach der Infektion werden Gruppen zu je 10 Mäusen mit Cefroxadin, sowohl allein (ohne Muramylpeptid) als auch in Kombination mit 10 mg/kg N-Acetyl-muramyl-L-alanyl-D-isoglutaminyl-L-alanyl-2-(1',2'-dipalmitoyl-sn-glycero-3'-hydroxyphosphoryloxy)-äthylamid behandelt, wobei dieselben zweimal in Form wässriger Lösungen oder Suspensionen auf subkutanem Weg verabreicht werden. Nach 4 bzw. 10 Tagen nach erfolgter Infektion wurden die überlebenden Tiere gezählt.

Klebsiella pneumoniae = settings: mice infected i.p. with 2 x 10^4 cfu Klebsiella pneumoniae; Cefroxadin s.c. immediately and 3 h after infection, combined with 10 mg/kg N-Acetyl-muramyl-L-alanyl-D-isoglutaminyl-L-alanyl-2-(1',2'-dipalmitoyl-sn-glycero-3'-hydroxyphosphoryloxy)-äthylamid, compared with Cefroxadin alone; survivors counted after 4 or 10 days
Source text: as §1, §2

Pasteurella multocida = settings: mice infected i.p. with 0,1 x 10^4 cfu Pasteurella multocida; Cefroxadin s.c. immediately and 3 h after infection, combined with 10 mg/kg N-Acetyl-muramyl-L-alanyl-D-isoglutaminyl-L-alanyl-2-(1',2'-dipalmitoyl-sn-glycero-3'-hydroxyphosphoryloxy)-äthylamid, compared with Cefroxadin alone; survivors counted after 4 or 10 days
Source text: as §1, §2

Measured: ED50-Werte für das Antibiotikum bei kombinierter Gabe mit dem Muramylpeptid

COC1=C(C(=O)O)N2C(=O)[C@@H](NC(=O)[C@H](N)C3=CCC=CC3)[C@H]2SC1 [Cefroxadin, 7ß-[D-2-amino-2-(1,4-cyclohexadienyl)-acetamido]-3-methoxy-3-cephem-4-carbonsäure]
um ein Mehrfaches niedriger: all assays above
